Experiments:
[1] = MRI tracer method: diffusion parameters of Gd-DTPA in brain ECS of SD rats, fitted from time-series MRI images; type: in vivo; details: for λ: tortuosity
Method: (§1) A method for computing the physiological parameter in the living organism will be illustrated with the following embodiment. In the embodiment, Gadolinium-diethylenetriaminepentaacetic acid (Gd-DTPA) which is Mag-nevist solution produced by Bayer Schering Pharma AG was used as the tracer. The corresponding MRI signal intensities of the tracer with the actual concentration in agarose gel and rat brain were measured. Male Sprague Dawley rats weighing 250-300g were used in the experiment. The living organism used for measurement is the rat brain. A Siemens Magnetom Trio 3.0 T MRI system was used to obtain the rat brain images.
(§2) In this embodiment, the position of the injection site Q and the depth of Gd-DTPA microinjection of the rat brains were determined by three-dimensional reconstructed image basing on the brain stereotaxic atlas. The specific method was: preparing skin, shaving between the eyes of rats about 4cm skin backwards along the midline of the skull and exposing the skull plate; then fixing the rats in a stereotactic apparatus and administrating the drug at the injection site Q using magnetic drug delivery system; rubbing off the skull plate at the entry point with an electric drill, setting a micro syringe into the brain and manually administrating 2µLGd-DTPA solution with the concentration of 10mM into the target location in three injection with the interval of 5min. The syringe was left for 10 min in the brain when drug injection was finished before the micro syringe was exited and the skin was sutured. Scanned images were taken in 15min, 30min, 1h, 2h, 3h, 4h, 6h, 9h and 12h and imaging parameters were set as the mentioned above.
As shown in the FIG., the bias field is first to be correct to eliminate the signal strength deviation among the sequence of images; the image registration technique is then used to unify the position of the increment images with the referenced images; the diffusion model is finally solved via the distribution of the tracer concentration from different times obtained by the analysis of the signal strength increment.
Although the tortuosity varies in different directions and remains unchanged in the same direction in equation (5), the real tortuosity probably varies in the same direction. The space variability of the tortuosity should be determined to accurately describe the real diffusion process. The tortuosity of a point (x, y, z) in space is: λ = λ(x, y, z) [formula] or written in a polar coordinates: λ = λ(r, θ, φ) [formula] the diffusion model is changed to: (∂C)/(∂t) = (D)/(λ((x, y, z))^2)(∇)^2 C−(Q)/(α)−k′C [formula]
Although equation (10) fully considers the space variability of the tortuosity, the solution of equation (8) is difficult to get. The equation (8) is a partial differential formula with variable coefficients and usually has no analytic solution. The continuous problem can be turned into a discrete problem to solve the equation (10): ΔSI(t+Δt)−ΔSI(t) = (D)/(λ((x, y, z))^2)(∇)^2 (ΔSI) + (Q)/(α)k−k′ΔSI(t) + k′b [formula] wherein, Δt is the sampling time in each unit, [formula] Δi represents the space distance of sampling along the axis i. It depends on the space resolution of the image along the axis i.
For the discrete equation (11), the space tortuosity λ, the loss ratio k' and the part volume ratio α can be fit by the least squares method, i.e. the solution of the below optimization problem is required: [formula]
Write the equation (12) in a matrix form and get: min f(λ,α,k′) = ‖Ax−b‖2^2 [formula] wherein, the nonvanishing element in the line (x, y, z, t,:) of the matrix A is : ((∂)^2 ΔSI)/((∂)^2 r) + k−ΔSI + b [formula] the line (x, y, Z, t,) of the known vector b is: b(x,y,z,t,:) = ΔSI(t+Δt)−ΔSI(t) [formula] the substitution variable x is: x = ([(D)/(λ((x, y, z))^2),(Q)/(α),k′])^T [formula] […]

[2] = MRI tracer method: distribution volume, distribution volume fraction and macro clearance of Gd-DTPA in brain hemisphere ECS after injection in caudate nucleus; type: in vivo, SD rats; details: for Macro clearance: injection to the caudate nucleus of eight SD rats; for Distribution Volume Fraction: rat brain hemisphere; for Distribution Volume Fraction / Distribution Volume (Vd): after injection in caudate nucleus; for Distribution Volume (Vd): rat brain
Method: as §1, §2
(§3) Calculation method about distribution volume (Vd), distribution volume fraction and general clearance of the tracer in the living organism is as follows: reconstructing the registered and subtracted images into axial images; quantitative measuring the signal increment region in image of each layer via the Matlab program as shown in figures; and recording the number of pixels in the increment region and the signal intensity value of each pixel. According to the integral principle, we can obtain the distribution volumes (Vd) of the tracer (Gd-DTPA) from different times in the brain hemisphere ECS via adding up the increment region of each layer. The distribution volume fraction of Gd-DTPA in the brain hemisphere ECS can be obtained by dividing the Vd from different times by the volume of the brain hemisphere of the rat. The macro clearance is defined as the total signal intensity at a previous time subtracting the total signal intensity at a later time, then dividing the initial total signal intensity.
The selected region in the FIG. is obtained by subtracting the image before increment from the increment image. The increment region is shown as the "bright region" and the other un-increment region is shown as the "dark region". […] Using the bulleted method above can measure the Vd, the distribution volume fraction and the macro clearance of the caudate nucleus.

[3] = MRI tracer method: diffusion parameters of Gd-DTPA in the skeletal muscle gap; type: in vivo; details: rat skeletal muscle gap
Description: (§4) Although the above invention is for the brain ECS of the SD rat, the present invention is applicable to other the living organisms. […] The left high signal region adjacent to the femur is the Gd-DTPA's diffusion region after injection.

[4] = MRI tracer method: distribution volume and macro clearance of Gd-DTPA in the skeletal muscle gap; type: in vivo; details: rat skeletal muscle gap
Description: as §3, §4

[5] = MRI tracer method: diffusion parameters of Gd-DTPA in the glioma brain; type: in vivo; details: glioma brain of the rat
Description: Table 8: the diffusion parameter of Gd-DTPA in the glioma brain of the rat

[6] = MRI tracer method: distribution volume, distribution volume fraction and macro clearance of Gd-DTPA in the glioma brain; type: in vivo; details: glioma brain of the rat
Description: as §3
Using the same method as used in the brain ECS, we can learn the time-varying change rule of distribution volume of the Gd-DTPA in the glioma brain of the rat. Table 9: the time-varying change rule of distribution volume of the Gd-DTPA in the glioma brain of the rat

[7] = SD rat brain, caudate putamen (CPu), Gd-DTPA 2µL, 10mM microinjection
[8] = SD rat brain, medial prefrontal cortex (mPFC), Gd-DTPA 2µL, 10mM microinjection
[9] = SD rat brain, occipital cortex (Oc), Gd-DTPA 2µL, 10mM microinjection
[10] = SD rat brain, substantianigra (SN), Gd-DTPA 2µL, 10mM microinjection
[11] = SD rat brain, thalamus (T), Gd-DTPA 2µL, 10mM microinjection
[12] = rats' caudate nucleus region, anisotropic, direction -X
[13] = rats' caudate nucleus region, anisotropic, direction -Y
[14] = rats' caudate nucleus region, anisotropic, direction -Z
[15] = rats' caudate nucleus region, anisotropic, direction X
[16] = rats' caudate nucleus region, anisotropic, direction Z

In the case of `O=C([O-])CN(CCN(CC(=O)[O-])CC(=O)O)CCN(CC(=O)[O-])CC(=O)O.[Gd+3]` [Gd-DTPA, Gadolinium-diethylenetriaminepentaacetic acid], the “D^∗” value [1, 7] is reported as 3.38 ×10^-4/mm^2·s^-1, the “k'” value [1, 7] is reported as 0.76 ×^10-4/mM· L^-1· s^-1 and the “D^∗” value [1, 8] is reported as 2.31 ×10^-4/mm^2·s^-1. The “k'” value [1, 8] was 2.38 ×^10-4/mM· L^-1· s^-1, the “D^∗” value [1, 9] was 3.25 ×10^-4/mm^2·s^-1 and the “k'” value [1, 9] was 1.55 ×^10-4/mM· L^-1· s^-1. For the same compound, the “D^∗” value [1, 10] was 2.06 ×10^-4/mm^2·s^-1, the “k'” value [1, 10] was 8.28 ×^10-4/mM· L^-1· s^-1 and the “D^∗” value [1, 11] was 3.28 ×10^-4/mm^2·s^-1. For the same compound, the “k'” value [1, 11] was 1.44 ×^10-4/mM· L^-1· s^-1, the “D^∗” value [1, 12] was 3.57 ± 0.88 ×10^-4/mm^2·s^-1 and the “k'” value [1, 12] was 7.14 ± 3.06 ×10^-5/mM·L^-1·s^-1. For the same compound, the “D^∗” value [1, 13] was 3.05 ± 0.93 ×10^-4/mm^2·s^-1, the “k'” value [1, 13] was 7.59 ± 4.04 ×10^-5/mM·L^-1·s^-1 and the “D^∗” value [1, 14] was 4.01 ± 0.60 ×10^-4/mm^2·s^-1. The “k'” value [1, 14] was 7.88 ± 6.24 ×10^-5/mM·L^-1·s^-1, the “D^∗” value [1, 15] was 3.73 ± 1.10 ×10^-4/mm^2·s^-1 and the “k'” value [1, 15] was 7.67 ± 3.96 ×10^-5/mM·L^-1·s^-1. For the same compound, the “D^∗” value [1, 16] was 2.54 ± 1.27 ×10^-4/mm^2·s^-1, the “k'” value [1, 16] was 7.74 ± 4.07 ×10^-5/mM·L^-1·s^-1 and the λ ([1]; SD rat brain, caudate putamen (CPu)) was 1.24. It also gave a λ ([1]; SD rat brain, medial prefrontal cortex (mPFC)) of 1.50, a λ ([1]; SD rat brain, occipital cortex (Oc)) of 1.26 and a λ ([1]; SD rat brain, substantianigra (SN)) of 1.59. The λ ([1]; SD rat brain, thalamus (T)) was 1.26, the Macro clearance ([2]; time 1-2 h) was 0.23 h⁻¹ and the Macro clearance ([2]; time 2-3 h) was 0.12 h⁻¹. For the same compound, the Macro clearance ([2]; time 3-4 h) was 0.19 h⁻¹, the Macro clearance ([2]; time 4-6 h) was 0.11 h⁻¹ and the Macro clearance ([2]; time 6-9 h) was 0.06 h⁻¹. For the same compound, the Macro clearance ([2]; time 9-12 h) was 0.08 h⁻¹, the “Distribution Volume Fraction” value ([2]; time 1 h) was 7.55% and the “Distribution Volume Fraction” value ([2]; time 2 h) was 9.48%. The “Distribution Volume Fraction” value ([2]; time 3 h) was 9.45%, the “Distribution Volume Fraction” value ([2]; time 4 h) was 8.20% and the “Distribution Volume Fraction” value ([2]; time 6 h) was 6.96%. For the same compound, the “Distribution Volume Fraction” value ([2]; time 9 h) was 4.29%, the “Distribution Volume Fraction” value ([2]; time 12 h) was 1.33% and the “Distribution Volume (Vd)” value ([2]; time 1 h) was 724.75 mm^3. For the same compound, the “Distribution Volume (Vd)” value ([2]; time 2 h) was 910.50 mm^3, the “Distribution Volume (Vd)” value ([2]; time 3 h) was 907.25 mm^3 and the “Distribution Volume (Vd)” value ([2]; time 4 h) was 787.57 mm^3. For the same compound, the “Distribution Volume (Vd)” value ([2]; time 6 h) was 668.50 mm^3, the “Distribution Volume (Vd)” value ([2]; time 9 h) was 411.57 mm^3 and the “Distribution Volume (Vd)” value ([2]; time 12 h) was 128.13 mm^3. For the same compound, the “D^∗” value ([3]; direction -X) was 2.611 ×10^-4/mm^2·s^-1, the “k'” value ([3]; direction -X) was 2.359 ×10^-4/mM·L^-1·s^-1 and the “D^∗” value ([3]; direction -Y) was 8.235 ×10^-4/mm^2·s^-1. The “k'” value ([3]; direction -Y) was 10.940 ×10^-4/mM·L^-1·s^-1, the “D^∗” value ([3]; direction -Z) was 7.154 ×10^-4/mm^2·s^-1 and the “k'” value ([3]; direction -Z) was 5.083 ×10^-4/mM·L^-1·s^-1. The “D^∗” value ([3]; direction X) was 2.930 ×10^-4/mm^2·s^-1, the “k'” value ([3]; direction X) was 2.870 ×10^-4/mM·L^-1·s^-1 and the “D^∗” value ([3]; direction Z) was 9.537 ×10^-4/mm^2·s^-1. For the same compound, the “k'” value ([3]; direction Z) was 7.817 ×10^-4/mM·L^-1·s^-1, the Vd ([4]; time 5 min) was 407 mm^3 and the Vd ([4]; time 10 min) was 383 mm^3. The Vd ([4]; time 15 min) was 234 mm^3, the Vd ([4]; time 25 min) was 0 mm^3 and the Macro clearance ([4]; time(h) 5-10) was 0.28 h⁻¹. The Macro clearance ([4]; time(h) 10-15) was 0.36 h⁻¹, the Macro clearance ([4]; time(h) 15-25) was 0.36 h⁻¹ and the “k'” value ([5]; direction -X) was 3.31 ×10^-4/mM·L^-1·s^-1. For the same compound, the “k'” value ([5]; direction -Y) was 3.12 ×10^-4/mM·L^-1·s^-1, the “k'” value ([5]; direction -Z) was 3.05 ×10^-4/mM·L^-1·s^-1 and the “k'” value ([5]; direction X) was 3.13 ×10^-4/mM·L^-1·s^-1. For the same compound, the “k'” value ([5]; direction Z) was 3.15 ×10^-4/mM·L^-1·s^-1, the Macro clearances ([6]; time 0.5-1 h) was 0.23 h⁻¹ and the Macro clearances ([6]; time 1-2 h) was 0.36 h⁻¹. For the same compound, the Macro clearances ([6]; time 2-3 h) was 0.41 h⁻¹, the “Distribution Volume Fraction” value ([6]; time 0.25 h) was 4.85% and the Vd ([6]; time 0.25 h) was 466 mm^3. The “Distribution Volume Fraction” value ([6]; time 0.5 h) was 6.78%, the Vd ([6]; time 0.5 h) was 651 mm^3 and the “Distribution Volume Fraction” value ([6]; time 1 h) was 7.50%. For the same compound, the Vd ([6]; time 1 h) was 720 mm^3, the “Distribution Volume Fraction” value ([6]; time 2 h) was 5.24% and the Vd ([6]; time 2 h) was 503 mm^3. For the same compound, the “Distribution Volume Fraction” value ([6]; time 3 h) was 0% and the Vd ([6]; time 3 h) was 0 mm^3.
